Target: HCV NS3 serine protease (Hepatitis C virus genotype 1a, UniProt P27958)
Assay: Inhibition of HCV NS3 serine protease, spectrophotometric assay (5A-pNA cleavage)
Format: biochemical
Settings: EDVVAbuC-p-nitroanilide (5A-pNA) substrate, 30° C., pNA release at 405 nm
Experimental: Insofar as compounds of formula (I) are able to inhibit NS3 serine protease, they are of evident clinical utility for the treatment of viral diseases, including HCV. The compounds of this invention are tested for their ability to inhibit HCV in the following spectrophotometric assay.
The spectrophotometric assays were run in a 96-well microtiter plate at 30° C., using a SpectraMax 250 reader (Molecular Devices, Sunnyvale, Calif.) with kinetic capability. Cleavage of EDVVAbuC-p-nitroanilide (5A-pNA) substrate was performed with or without NS4A in the same buffer used for HPLC assays at 30° C., and pNA release was monitored at 405 nm. […]
Kinetic constants for the rapid equilibrium ordered bisubstrate reaction were determined from rate vs. [4A], [EDVV AbuC-pNA] data by non-linear least squares fitting to equation 1 [J. F. Morrison, Biochim. […] Kii and Kis values for peptidyl inhibitors were determined from rate vs. [inhibitor], [substrate] data and fitting to the equation for mixed inhibition: rate=Vmax[S]/{Km(1+[I]/Kis)+[S](1+[I]/Kii)} The commercial program KinetAsyst (StateCollege, Pa.) was used for both procedures. Ki values were calculated from rate vs. [inhibitor] plots by a nonlinear least squares fit of the data to the equation of Morrison for tight binding competitive inhibition [J. F. Morrison, Biochim. […]

Chain of HCV NS3 serine protease (P27958 1027-1657): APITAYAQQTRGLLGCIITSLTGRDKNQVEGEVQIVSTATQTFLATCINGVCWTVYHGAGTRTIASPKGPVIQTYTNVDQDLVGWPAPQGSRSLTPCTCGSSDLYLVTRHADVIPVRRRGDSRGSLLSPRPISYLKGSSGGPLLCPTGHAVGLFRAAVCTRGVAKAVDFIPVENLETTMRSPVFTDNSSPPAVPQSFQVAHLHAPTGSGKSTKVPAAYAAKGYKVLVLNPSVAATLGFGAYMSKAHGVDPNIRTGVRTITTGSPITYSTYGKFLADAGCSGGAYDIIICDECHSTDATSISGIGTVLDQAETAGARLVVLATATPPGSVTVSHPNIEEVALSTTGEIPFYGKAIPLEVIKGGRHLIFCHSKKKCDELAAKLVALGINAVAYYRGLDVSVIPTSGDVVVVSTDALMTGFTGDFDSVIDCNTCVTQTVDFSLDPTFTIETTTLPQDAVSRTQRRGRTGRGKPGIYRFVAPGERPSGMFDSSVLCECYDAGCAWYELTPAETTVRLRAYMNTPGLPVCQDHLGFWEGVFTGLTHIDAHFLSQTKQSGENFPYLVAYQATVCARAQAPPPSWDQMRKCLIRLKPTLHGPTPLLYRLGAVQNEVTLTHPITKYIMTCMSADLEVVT

| Structure (SMILES) | Ki [nM] |
| --- | --- |
| CCC[C@H](NC(=O)C1C[C@@H](OC(=O)N2CCc3ccccc3C2)CN1C(=O)[C@@H](NC(=O)[C@@H](NC(=O)c1cnccn1)C(C)C)C(C)C)C(=O)C(=O)N1CCC1 (some centres unmarked) [Compound 7] | < 1000 |
| CCC[C@H](NC(=O)C1C[C@@H](OC(=O)N2CCc3ccccc3C2)CN1C(=O)[C@@H](NC(=O)[C@@H](NC(=O)c1cnccn1)C(C)C)C(C)C)C(=O)C(=O)N1CC(Oc2ccccc2)C1 (some centres unmarked) [Compound 9] | < 1000 |
